Results from ChEMBL document CHEMBL1149779, “Synthesis, characterization and in vitro release studies of a new acetazolamide-HP-beta-CD-TEA inclusion complex” (Eur J Med Chem, 2008).
≈ marks a conversion by molar mass, not a printed value.

Experiments:
[1] = Permeability across rabbit cornea; assay type: ADME, tissue-based, Oryctolagus cuniculus
[2] = physchem; settings: citric acid-Na2HPO4 buffer, pH 4.12
Description: Solubility in citric acid-Na2HPO4 buffer at pH 4.12

[3] = physchem; settings: citric acid-Na2HPO4 buffer, pH 4.12; remark: listed apart in the source
Description: Solubility in citric acid-Na2HPO4 buffer at pH 4.12 in presence of 0.0226 mol/l hydroxypropyl-beta-cyclodextrin

[4] = physchem; settings: citric acid-Na2HPO4 buffer, pH 4.12; remark: listed apart in the source
Description: Solubility in citric acid-Na2HPO4 buffer at pH 4.12 in presence of 0.0302 mol/l hydroxypropyl-beta-cyclodextrin

[5] = physchem; settings: citric acid-Na2HPO4 buffer, pH 4.12; remark: listed apart in the source
Description: Solubility in citric acid-Na2HPO4 buffer at pH 4.12 in presence of 0.0604 mol/l hydroxypropyl-beta-cyclodextrin

[6] = physchem; settings: citric acid-Na2HPO4 buffer, pH 4.12; remark: listed apart in the source
Description: Solubility in citric acid-Na2HPO4 buffer at pH 4.12 in presence of 0.0755 mol/l hydroxypropyl-beta-cyclodextrin

[7] = physchem; settings: citric acid-Na2HPO4 buffer, pH 4.12; remark: listed apart in the source
Description: Solubility in citric acid-Na2HPO4 buffer at pH 4.12 in presence of 0.1132 mol/l hydroxypropyl-beta-cyclodextrin

[8] = physchem; settings: citric acid-Na2HPO4 buffer, pH 4.12; remark: listed apart in the source
Description: Solubility in citric acid-Na2HPO4 buffer at pH 4.12 in presence of 0.1660mol/l hydroxypropyl-beta-cyclodextrin

[9] = physchem; settings: water
[10] = physchem; settings: water; remark: listed apart in the source
Description: Solubility in water in presence of 0.0151 mol/l hydroxypropyl-beta-cyclodextrin

[11] = physchem; settings: water; remark: listed apart in the source
Description: Solubility in water in presence of 0.0302 mol/l hydroxypropyl-beta-cyclodextrin

[12] = physchem; settings: water; remark: listed apart in the source
Description: Solubility in water in presence of 0.0604 mol/l hydroxypropyl-beta-cyclodextrin

[13] = physchem; settings: water; remark: listed apart in the source
Description: Solubility in water in presence of 0.0755 mol/l hydroxypropyl-beta-cyclodextrin

[14] = physchem; settings: water; remark: listed apart in the source
Description: Solubility in water in presence of 0.1132 mol/l hydroxypropyl-beta-cyclodextrin

[15] = physchem; settings: NaOH-NaHCO3 buffer, pH 9.57
Description: Solubility in NaOH-NaHCO3 buffer at pH 9.57

[16] = physchem; settings: NaOH-NaHCO3 buffer, pH 9.57; remark: listed apart in the source
Description: Solubility in NaOH-NaHCO3 buffer at pH 9.57 in presence of 0.0226 mol/l hydroxypropyl-beta-cyclodextrin

[17] = physchem; settings: NaOH-NaHCO3 buffer, pH 9.57; remark: listed apart in the source
Description: Solubility in NaOH-NaHCO3 buffer at pH 9.57 in presence of 0.0302 mol/l hydroxypropyl-beta-cyclodextrin

[18] = physchem; settings: NaOH-NaHCO3 buffer, pH 9.57; remark: listed apart in the source
Description: Solubility in NaOH-NaHCO3 buffer at pH 9.57 in presence of 0.0604 mol/l hydroxypropyl-beta-cyclodextrin

[19] = physchem; settings: NaOH-NaHCO3 buffer, pH 9.57; remark: listed apart in the source
Description: Solubility in NaOH-NaHCO3 buffer at pH 9.57 in presence of 0.0755 mol/l hydroxypropyl-beta-cyclodextrin

[20] = physchem; settings: NaOH-NaHCO3 buffer, pH 9.57; remark: listed apart in the source
Description: Solubility in NaOH-NaHCO3 buffer at pH 9.57 in presence of 0.1132 mol/l hydroxypropyl-beta-cyclodextrin

[21] = physchem; settings: NaOH-NaHCO3 buffer, pH 9.57; remark: listed apart in the source
Description: Solubility in NaOH-NaHCO3 buffer at pH 9.57 in presence of 0.1660 mol/l hydroxypropyl-beta-cyclodextrin

[22] = physchem; settings: water; remark: listed apart in the source
Description: Solubility in water in presence of 0.334 mol/l triethanolamine

[23] = physchem; settings: water; remark: listed apart in the source
Description: Solubility in water in presence of 0.1001 mol/l triethanolamine

[24] = physchem; settings: citric acid-Na2HPO4 buffer, pH 4.12; remark: listed apart in the source
Description: Solubility in citric acid-Na2HPO4 buffer at pH 4.12 in presence of 0.2 M hydroxypropyl-beta-cyclodextrin

[25] = physchem; settings: NaOH-NaHCO3 buffer, pH 9.57; remark: listed apart in the source
Description: Solubility in NaOH-NaHCO3 buffer at pH 9.57 in presence of 0.2 M hydroxypropyl-beta-cyclodextrin

CC(=O)Nc1nnc(S(N)(=O)=O)s1 [ACETAZOLAMIDE]
permeability [1]: 4.1 ×10⁻⁶ cm/s
solubility [2]: 850 µg/mL (≈ 3.82 mM)
solubility [3]: 1660 µg/mL (≈ 7.47 mM)
solubility [4]: 1830 µg/mL (≈ 8.23 mM)
solubility [5]: 2280 µg/mL (≈ 10.3 mM)
solubility [6]: 2960 µg/mL (≈ 13.3 mM)
solubility [7]: 3780 µg/mL (≈ 17 mM)
solubility [8]: 4970 µg/mL (≈ 22.4 mM)
solubility [9]: 810 µg/mL (≈ 3.64 mM)
solubility [10]: 1880 µg/mL (≈ 8.46 mM)
solubility [11]: 2440 µg/mL (≈ 11 mM)
solubility [12]: 4510 µg/mL (≈ 20.3 mM)
solubility [13]: 5530 µg/mL (≈ 24.9 mM)
solubility [14]: 7030 µg/mL (≈ 31.6 mM)
solubility [15]: 2770 µg/mL (≈ 12.5 mM)
solubility [16]: 3210 µg/mL (≈ 14.4 mM)
solubility [17]: 3620 µg/mL (≈ 16.3 mM)
solubility [18]: 4770 µg/mL (≈ 21.5 mM)
solubility [19]: 5290 µg/mL (≈ 23.8 mM)
solubility [20]: 5930 µg/mL (≈ 26.7 mM)
solubility [21]: 7020 µg/mL (≈ 31.6 mM)
solubility [22]: 3860 µg/mL (≈ 17.4 mM)
solubility [23]: 5910 µg/mL (≈ 26.6 mM)
solubility [24]: 4970 µg/mL (≈ 22.4 mM)
solubility [25]: 7020 µg/mL (≈ 31.6 mM)
